This is an account of results in PubChem BioAssay (NCI).

Where “and” joins values, the source holds several entries; their conditions need not be identical. Identical values can stand only once.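 Test compounds were applied to cells in 96-well plates for 48 hours at 5 doses. GI50 marks 50% less growth. TGI is the concentration that stops growth completely.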

Some test systems named below: 786-0 renal; ACHN renal; MDA-MB-435; MOLT-4 leukemia; NCI-H23 lung; NCI-H522 lung; NCI/ADR-RES ovarian; OVCAR-5 ovarian; OVCAR-8 ovarian; SF-295 CNS; T-47D breast; TK-10 renal.
What all share (experiment): NCI anticancer screen, dose series, 48 h

As to `COc1cc(C=C2C(C)=NN(c3cccc(Cl)c3)C23C(Cl)C(=O)N3c2nc3ccccc3s2)ccc1O` (centres undefined), the TGI came out at 43.7 µM with 786-0 renal; 39.1 µM in the assay with ACHN renal; 35.1 µM with MDA-MB-435; 21.1 µM with MOLT-4 leukemia; 57.4 µM in the assay on NCI-H23 lung; 12.5 µM with NCI-H522 lung. Besides, the TGI with NCI/ADR-RES ovarian is over 100 µM; in the assay on OVCAR-5 ovarian it was 50.9 µM; in the assay with OVCAR-8 ovarian it was 41.5 µM; in the assay on SF-295 CNS, over 100 µM; in the assay on T-47D breast, over 100 µM; in the assay with TK-10 renal, over 100 µM.
Regarding `CCN(CC)CCCn1c(=O)c2ccccc2n2c3c(=O)n(C)c(=O)n(C)c3nc12`, the TGI came out at 18.6 µM in the assay on 786-0 renal; 4.17 µM in the assay on ACHN renal; 27.5 µM in the assay with MDA-MB-435; 8.92 µM with MOLT-4 leukemia; 21.2 µM in the assay on NCI-H23 lung; 21.9 µM in the assay on NCI-H522 lung. Moreover, the TGI in the assay on NCI/ADR-RES ovarian was found to be 47.2 µM; in the assay on OVCAR-5 ovarian, 32.9 µM; in the assay on OVCAR-8 ovarian, 23.4 µM; in the assay with SF-295 CNS, 15.6 µM; with T-47D breast it was 49.8 µM; in the assay on TK-10 renal, 38.9 µM.
On to `O=C1CC(=O)NC(=NN2C(=O)/C(=C/c3ccccc3)N=C2c2ccccc2)N1`, for which the TGI in the assay on 786-0 renal, with ACHN renal, in the assay on MDA-MB-435, with MOLT-4 leukemia, with NCI-H23 lung and with NCI-H522 lung was over 100 µM each time. Moreover, the TGI in the assay with NCI/ADR-RES ovarian, in the assay on OVCAR-5 ovarian, with OVCAR-8 ovarian, in the assay on SF-295 CNS, in the assay with T-47D breast and with TK-10 renal was over 100 µM each time.
In the case of `Cc1ccc2c(sc(-c3ccc4c(c3)sc(-c3ccc5c(c3)sc(-c3ccc(N(C)C)cc3)[n+]5C)[n+]4C)[n+]2C)c1S(=O)(=O)O` (tested in a mixture with another compound), the TGI in the assay on 786-0 renal, in the assay with ACHN renal, in the assay on MDA-MB-435, in the assay with MOLT-4 leukemia, with NCI-H23 lung and in the assay on NCI-H522 lung was over 100 µM each time. In addition, the TGI in the assay on NCI/ADR-RES ovarian, in the assay with OVCAR-5 ovarian, in the assay with OVCAR-8 ovarian, in the assay with SF-295 CNS, with T-47D breast and in the assay on TK-10 renal was over 100 µM throughout.
In the case of `Oc1ccccc1C=Nc1ccc(-c2nc3ccccc3[nH]2)cc1`, the TGI with 786-0 renal, in the assay on ACHN renal, with MDA-MB-435, with MOLT-4 leukemia, in the assay on NCI-H23 lung and in the assay with NCI-H522 lung was over 100 µM each time. The TGI with NCI/ADR-RES ovarian was 53.2 µM; with OVCAR-5 ovarian, over 100 µM; in the assay on OVCAR-8 ovarian, over 100 µM; in the assay with SF-295 CNS it was over 100 µM; in the assay on T-47D breast, 66.5 µM; in the assay with TK-10 renal, over 100 µM.
Turning to `O=C(Nc1cc2c(=O)oc3ccccc3c2oc1=O)c1cccnc1`, the TGI in the assay with 786-0 renal, in the assay on ACHN renal, with MDA-MB-435, in the assay with MOLT-4 leukemia, with NCI-H23 lung and in the assay with NCI-H522 lung was over 100 µM throughout. For the same molecule, the TGI with NCI/ADR-RES ovarian, with OVCAR-5 ovarian, in the assay on OVCAR-8 ovarian, in the assay with SF-295 CNS, with T-47D breast and with TK-10 renal was over 100 µM throughout.
On to `COC1C(O)C(C)OC(OC2C(Oc3cccc4c(O)c5c(=O)oc6ccc(C)c7c(=O)oc(c34)c5c67)OC(C)C(O)C2O)C1O` (centres undefined), for which the TGI with 786-0 renal is 4.57 µM; in the assay on ACHN renal, 46.1 µM; in the assay on MDA-MB-435, 8.29 µM; in the assay on MOLT-4 leukemia, 14.9 µM and 2.23 µM; with NCI-H23 lung, 9.28 µM and 4.6 µM; in the assay on NCI-H522 lung it was 2.74 µM and 3.67 µM. The TGI with NCI/ADR-RES ovarian is 117 µM; in the assay on OVCAR-5 ovarian it was 30.8 µM and 15.6 µM; in the assay with OVCAR-8 ovarian it was 52.8 µM and 5.65 µM; with SF-295 CNS, 11.9 µM and 4.21 µM; with T-47D breast it was 7.66 µM; in the assay with TK-10 renal, 21 µM. The GI50 in the assay with MOLT-4 leukemia is 0.647 µM; in the assay with NCI-H23 lung it was 1.93 µM; with NCI-H522 lung, 0.747 µM; with NCI/ADR-RES ovarian, 26.1 µM; with OVCAR-5 ovarian it was 6.91 µM; in the assay with OVCAR-8 ovarian, 1.65 µM. Moreover, the GI50 in the assay on SF-295 CNS was 1.12 µM.
In the case of `CC(C)(C)c1cc2c(O)c(c1)Cc1cc(C(C#N)(Cc3ccc4ccccc4c3)Cc3ccc4ccccc4c3)cc(c1O)Cc1cc(C(C)(C)C)cc(c1O)Cc1cc(C(C#N)(Cc3ccc4ccccc4c3)Cc3ccc4ccccc4c3)cc(c1O)C2`, the TGI in the assay on 786-0 renal, in the assay with ACHN renal, in the assay on MDA-MB-435, in the assay with MOLT-4 leukemia, in the assay with NCI-H23 lung and in the assay with NCI-H522 lung was over 100 µM each time. The TGI in the assay with NCI/ADR-RES ovarian, in the assay on OVCAR-5 ovarian, in the assay on OVCAR-8 ovarian, with SF-295 CNS, with T-47D breast and with TK-10 renal was over 100 µM in each case.
For `C/C(=N\Nc1nc2ccccc2n1C)c1cnccn1`, the TGI is over 39.2 µM with 786-0 renal; over 100 µM in the assay with ACHN renal; over 100 µM in the assay with MDA-MB-435; over 100 µM in the assay on MOLT-4 leukemia; over 100 µM with NCI-H23 lung; over 35.8 µM with NCI-H522 lung. In addition, the TGI is 3.14 µM in the assay with NCI/ADR-RES ovarian; over 100 µM in the assay with OVCAR-5 ovarian; over 100 µM with OVCAR-8 ovarian; over 100 µM in the assay on SF-295 CNS; over 100 µM in the assay with T-47D breast; over 100 µM in the assay with TK-10 renal.
`OC[C@]1(n2nc3ccccc3n2)OC[C@@H]1c1ccccc1`: the TGI in the assay on 786-0 renal was over 100 µM; in the assay with ACHN renal, over 100 µM; in the assay on MDA-MB-435, over 100 µM; in the assay with MOLT-4 leukemia, over 100 µM; in the assay with NCI-H23 lung it was over 100 µM; in the assay with NCI-H522 lung it was 58.2 µM. In addition, the TGI with NCI/ADR-RES ovarian, in the assay on OVCAR-5 ovarian, in the assay on OVCAR-8 ovarian, in the assay with SF-295 CNS, with T-47D breast and with TK-10 renal was over 100 µM throughout.
With `Cc1ccc2c(n1)C(=O)C=CC2=O`, the TGI in the assay on 786-0 renal is 11.4 µM; in the assay on ACHN renal, 8.63 µM; with MDA-MB-435, 33 µM; in the assay with MOLT-4 leukemia, over 24 µM; in the assay with NCI-H23 lung it was 30.6 µM; in the assay on NCI-H522 lung, 3.51 µM. Also, the TGI in the assay on NCI/ADR-RES ovarian was determined as 48.6 µM; in the assay with OVCAR-5 ovarian, 34.4 µM; in the assay with OVCAR-8 ovarian, 33.7 µM; in the assay with SF-295 CNS, 35.7 µM; with T-47D breast it was 4.74 µM; in the assay on TK-10 renal, 6.21 µM.
